Patent US20260232644A1, “Compositions Comprising an Inhibitor of Galectin-3” (University of Liverpool, priority 2023, published 2026)
Structures can show the parent of a compound that is named as a salt.

What was measured:
Galectin-3 = biological target: T1, Galectin-3 (Homo sapiens, UniProt P17931); experiment: Galectin-3 binding to asialofetuin (ASF) ELISA
T1 construct: made in house; host or cells: E. coli
Procedure: (§1) Effect of the inhibitors on galectin binding to its ligand asialo fetuin (ASF) was measured by galectin ELISA. Nanty-six well plates were coated overnight with 20 μg/ml ASF in coating buffer (15 mM Na2CO3 17 mM NaHCO3 pH 9.6.). The wells were washed twice with PBS and incubated with blocking buffer (1% BSA in PBS) for 1 hr. The supernatants were removed and replaced with 5 μg/ml recombinant human galectin without or with different concentrations of the compound inhibitors or lactose in blocking buffer for 1 hr at room temperature. The wells were washed and incubated with 1 μg/ml anti-galectin antibody for 2 hr. Following addition of HRP-conjugated secondary antibody for 1 hr, FAST OPD development solution was added for 15-20 minutes. The reaction was terminated by addition of 4M sulphuric acid. The plates were read at 492 nm (reference wavelength 595 nm) by a microplate reader.

[1] = tested on: human colon cancer SW620 cells; experiment: Galectin-3-mediated SW620 cell adhesion to HUVECs; format: cell-based; details: Galectin-3 2 μg/ml, various concentrations
Procedure: HUVEC cells at 1×10^5 cells/ml in EGM medium were seeded into 24 well plates pre-inserted with 13 mm glass coverslip. The cells were incubated at 37° C. at 5% CO2 for 24 hr for monolayer formation. AGA19+ or SW620 cell suspension (5×10^5 cells/ml in DMEM) was introduced with 5 μl/ml fluorescent cell labelling solution DiL for 30 min at 37° C. The fluorescent labelled cells were washed twice with PBS and resuspended into 1×10^5 cells/ml in DMEM. The cancer cell suspension was then introduced with galectin-3 (2 μg/ml) and various concentrations of the compound inhibitors at 37° C. for 1 hr. The wells were carefully washed twice with PBS to remove the non-adhesion cells before the cells in the wells were fixed with 2% paraformaldehyde for 10 min. The glass coverslip was carefully removed from the plate, placed on a glass slide. After addition of fluorescence mounting medium containing DAPI, fluorescence labelled cells were quantified under a fluorescence microscope.

[2] = tested on: human melanoma ACA19 cells; experiment: ACA19 cell invasion through HUVECs (transwell); format: cell-based; details: compound 20 μM, transwells
Procedure: HUVECs were plated at a density of 1.5×10^4 cells in 8 μm pore transwells in 24-well plate and cultured for three days to allow formation of tight monolayer. The integrity of HUVEC monolayer was confirmed by measuring TEER and only monolayers with TEER reading>800 Ω/cm^2 were used for the invasion assay. AGA19+ or SW620 cell suspension (5×10^5 cells/ml in DMEM) was introduced with 5 μl/ml fluorescent cell labelling solution DiL for 30 min at 37° C. The fluorescence labelled cells were washed twice with PBS and resuspended into 1×10^5 cells/ml in DMEM. The cancer cell suspension was then incubated with or without galectin-3 (2 μg/ml) or various concentrations of the compound inhibitors or lactose at 37° C. for 20 min before introduction to the HUVEC monolayers for 24 hr at 37° C. The cells at the upper side of the trans-well inserts were gently removed with cotton swabs. The cells migrated to the bottom side of the transwells were fixed with 2% paraformaldehyde for 10 min. The trans-well membrane was removed and placed on glass slides. After addition of fluorescence mounting medium containing DAPI, the fluorescence labelled cells on the membrane were quantified under a fluorescence microscope.

[3] = tested on: human umbilical vein endothelial cells (HUVECs); experiment: Vascular cell tubule formation (angiogenesis); format: cell-based; details: Galectin-3 2 μg/ml, compound 10 μM
Procedure: Matrigel matrix (50 μl) was added to 96-well plates for 60 min at 37° C. to allow gel formation. HUVEC cells (1×10^5 cells/ml in 1:1 EGM/EBM2 media) was introduced to the plates without or with galectin-3 (2 μg/ml) or different concentrations of compound inhibitors for 24 hr at 37° C. Endothelial cell tube formation was examined with Laser Microscope. The total number of branching points and the sum of the lengths of tubes were measured.

Galectin-2 = biological target: T2, Galectin-2 (Homo sapiens, UniProt P05162); experiment: Galectin-2 binding to asialofetuin ELISA; details: Gal-2 5 μg/ml, ASF 20 μg/ml
T2 construct: made in house; host or cells: E. coli
T2 sequence (P05162 1-132): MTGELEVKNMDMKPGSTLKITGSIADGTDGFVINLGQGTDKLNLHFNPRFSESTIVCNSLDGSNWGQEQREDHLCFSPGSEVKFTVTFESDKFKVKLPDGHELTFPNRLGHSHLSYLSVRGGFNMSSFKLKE
Procedure: as §1

[4] = tested on: triple-negative breast cancer MDA-MB-231 cells; experiment: Triple-negative breast cancer cell adhesion to basement matrix; format: cell-based, human; details: Homo sapiens, MDA-MB-231
Procedure: Nanty-six well plates were coated with 50 μl Matrigel (1:30 diluted in PBS) at 37° C. for 1 hour.
Cancer cells, pre-labelled with fluorescent die DiI at 37° C. for 20 minutes, were washed twice with PBS and resuspended into 3×10^4 cells/ml in serum-free medium. The matrix-coated 96-well plates were washed twice with PBS before introduction of 100μ cell suspension with different concentrations of the inhibitors or PBS/DMSO (control) for 1 hour at 37° C. The plates were washed twice with PBS before three randomly selected Field of Views (FOVs) were recorded by fluorescence microscope and number of adhesion cells were quantified by Image J.
MDAMB-231 or PANC-1 cells were seeded into 6-well plate (2×10^5 cells) and cultured at 37° C. for 24 hour. Galectin-3 CRISPR Cas9 Knockout plasmid (2 μg) and galectin-3 HDR plasmid (2 μg) was mixed with Plasmid Transfection Medium (21 μl) for 5 minutes before addition to a mixture of lipofectamine STEM Transfection Reagent (STEM00001) (1 μl) and Plasmid Transfection Medium (25 μl) for 10 minutes at room temperature. The cells in the 6-well plates were washed and introduced with the Plasmid DNA/Lipofectamine STEM Transfection Reagent complex at 37° C. for 24 hour. The culture medium was replaced with fresh antibiotics-free medium for further 24 hour before introduction of 10 μg/mL puromycin-containing medium every three days. Successful co-transfection of the CRISPR/Cas9 KO Plasmid and HDR Plasmid was confirmed by expression of red fluorescence protein of the cells. Galectin-3 knockout in the cells was further confirmed by immunoblotting.

T1 sequence (P17931 whole entry): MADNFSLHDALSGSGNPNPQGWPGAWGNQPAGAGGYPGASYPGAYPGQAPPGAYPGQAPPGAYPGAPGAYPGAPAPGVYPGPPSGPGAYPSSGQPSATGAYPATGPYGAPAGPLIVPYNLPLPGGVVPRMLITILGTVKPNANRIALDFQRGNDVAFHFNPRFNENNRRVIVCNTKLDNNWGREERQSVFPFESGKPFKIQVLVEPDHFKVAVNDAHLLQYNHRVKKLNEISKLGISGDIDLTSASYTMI

NC1CCN(c2nc3c(cc2F)c(=O)c(C(=O)O)cn3-c2ccc(F)cc2F)C1 (centres unmarked) [Formula X, Tosufloxacin tosylate] was tested, and the “Inhibition of Galectin-3 binding to its ligand asialofetuin (ASF)” value (Galectin-3; Galectin-3 5 μg/ml, ASF 20 μg/ml, different concentrations of compound, ELISA) was “inhibit galectin-3 binding to ASF in a dose-dependent manner”, the IC50 (Galectin-3; read-out: IC50, inhibition of Galectin-3 binding to its ligand) was no more than 10 µM and the “Inhibition of SW620 cell adhesion to HUVECs” value [1] was “dose-dependent inhibition”. For the same compound, the “Inhibition of Galectin-3-mediated invasion of ACA19 cells through HUVECs” value [2] was “significant inhibition”, the “Inhibition of galectin-3-induced tubule numbers” value [3] was “significant inhibition” and the “Inhibition of galectin-3-induced vascular tubule length” value [3] was “significant inhibition”. For the same compound, the “Effect on Galectin-2 binding to asialofetuin” value (Galectin-2) was “does not affect binding” and the IC50 [4] was roughly 10 µM.
